What was measured:
[1] = biological target: T1, iPLA2β (Cricetulus griseus, UniProt A0A3L7I2I8); experiment: iPLA2β phospholipase A2 activity with radiolabeled POPC substrate; type: biochemical; conditions: oleoyl-CoA 10 μM, [14C]-POPC substrate, FIG. 11I
T1 construct: (His)6; made in house; host or cells: Sf9 insect cells (baculovirus)
T1 sequence (A0A3L7I2I8 1-752 isoform A0A3L7I2I8-2): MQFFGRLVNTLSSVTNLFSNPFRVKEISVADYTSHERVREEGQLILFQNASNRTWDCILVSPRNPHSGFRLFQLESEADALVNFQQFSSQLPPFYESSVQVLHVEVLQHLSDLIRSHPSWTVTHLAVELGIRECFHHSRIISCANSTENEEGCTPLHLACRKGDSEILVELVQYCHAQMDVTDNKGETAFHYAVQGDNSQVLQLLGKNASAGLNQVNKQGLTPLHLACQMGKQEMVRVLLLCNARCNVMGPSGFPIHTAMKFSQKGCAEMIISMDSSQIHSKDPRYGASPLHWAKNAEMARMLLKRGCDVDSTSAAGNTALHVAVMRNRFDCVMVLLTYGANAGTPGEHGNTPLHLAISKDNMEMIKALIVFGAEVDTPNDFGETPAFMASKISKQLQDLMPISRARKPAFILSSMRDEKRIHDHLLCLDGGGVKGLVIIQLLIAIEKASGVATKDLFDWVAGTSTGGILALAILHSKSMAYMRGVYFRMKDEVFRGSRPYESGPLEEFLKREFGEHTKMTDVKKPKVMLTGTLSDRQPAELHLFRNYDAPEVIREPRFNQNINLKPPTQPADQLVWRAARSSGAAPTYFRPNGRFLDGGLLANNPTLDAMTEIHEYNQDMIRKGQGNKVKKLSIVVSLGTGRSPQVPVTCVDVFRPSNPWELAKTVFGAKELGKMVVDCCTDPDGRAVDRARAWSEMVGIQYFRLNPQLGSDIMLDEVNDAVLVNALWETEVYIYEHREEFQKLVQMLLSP
Experimental: FIG. 9—Calcium-independent iPLA2β was pre-incubated in the presence of Ca^2+ (1 mM) or Ca^2+-CaM (3 μg) on ice before addition to 95 μM POPC containing either 5 mol % [1-^14C]-POPC or [1-^14C]-palmitoyl-CoA in 100 mM Tris-HCl, pH 7.2. After incubation at 37° C. for 3 min, reactions were terminated by vortexing in the presence of butanol and released radiolabeled fatty acids were resolved by TLC and quantitated by liquid scintillation spectrometry as described in Experimental Procedures.
FIGS. 11A-11D—Purified iPLA2β+/−Ca^2+/CaM was incubated with POPC/BODIPY-PC (95:5 mol %) host vesicles for 2 min at 37° C. with the indicated concentrations of guest oleoyl-CoA. Relative fluorescence was recorded utilizing 495 nm excitation and 515 nm emission wavelengths as described in Experimental Procedures. […] Radiolabeled fatty acid was extracted into butanol, resolved by TLC, and quantified by scintillation spectrometry as described in Experimental Procedures.
Phospholipase A2 and Acyl-CoA Hydrolase Enzymatic Assays—Purified recombinant iPLA2β(His)6 (peptide disclosed as SEQ ID NO: 4) (0.1-1 μg) was incubated with radiolabeled phospholipid or acyl-CoA in 25 mM Tris-HCl, pH 7.2 containing 1 mM EGTA (200 μl final volume) for 1-2 mm at 37° C. […] Incorporation of acyl-CoA into the POPC/DOPS vesicles employed was determined as described previously (64). […]

[2] = biological target: T1, iPLA2β; experiment: ESI-MS analysis of iPLA2β reaction products from POPC/BODIPY-PC vesicles; type: biochemical; conditions: 5 mol % oleoyl-CoA, FIG. 11H
Experimental: FIGS. 11A-11D—Purified iPLA2β+/−Ca^2+/CaM was incubated with POPC/BODIPY-PC (95:5 mol %) host vesicles for 2 min at 37° C. with the indicated concentrations of guest oleoyl-CoA. Relative fluorescence was recorded utilizing 495 nm excitation and 515 nm emission wavelengths as described in Experimental Procedures. FIGS. 11E-11H—ESI-MS analysis of phosphatidylcholine molecular species from the reactions described in panels A and D. Spectra were acquired in the positive ion mode with the indicated internal standards as described in Experimental Procedures. FIG. 11I—Purified iPLA2β in the presence or absence of Ca^2+/CaM was incubated with 1-palmitoyl-2-[1-^14C]-oleoyl-sn-glycero-3-phosphocholine (100 μM) host vesicles with or without guest oleoyl-CoA (10 μM) for 3 min at 37° C. Radiolabeled fatty acid was extracted into butanol, resolved by TLC, and quantified by scintillation spectrometry as described in Experimental Procedures.
To confirm that iPLA2β was in fact hydrolyzing BODIPY-PC and that the increase in fluorescence observed was not due to either protein-fluorophore or acylCoA-fluorophore interactions, the reaction substrates and products were extracted into chloroform/methanol in the presence of internal standards and subsequently quantified and analyzed by ESI-MS (83). […]

CCCCCCCC/C=C\CCCCCCCC(=O)SCCNC(=O)CCNC(=O)[C@H](O)C(C)(C)COP(=O)(O)OP(=O)(O)OC[C@H]1O[C@@H](n2cnc3c(N)ncnc32)[C@H](O)[C@@H]1OP(=O)(O)O [oleoyl-CoA]
inhibition at 10 µM ([1]; no CaM, read-out: inhibition of iPLA2β activity by oleoyl-CoA alone): 20%
activity of CaM-inhibited iPLA2β, % of the activity observed with oleoyl-CoA alone [1]: approximately 75%
effect on inhibition of iPLA2β by Ca2+/CaM [2]: completely reversed the inhibition
